This is an account of results in patent US20130316963A1, “INNATE DEFENCE REGULATORY PEPTIDE COMPOSITIONS FOR TREATMENT OF ARTHRITIS” (UNIVERSITY OF MANITOBA, priority 2010, published 2013).

The assay concerns human FLS cells. Put plainly: Cytokine and chemokine production in human FLS cell supernatants (BD Cytometric Bead Array). Type of assay: cell-based. The protocol:
Tissue culture supernatants were harvested after stimulation of human FLS cells with various cytokines (as indicated) with and without IDR peptides after 24 hr. The supernatants were centrifuged at 1500×g for 7 min to obtain cell-free samples. The samples were aliquoted and stored at −20° C. until further use. Production of MMP-3 in the tissue culture supernatants was monitored using Quantikine® human MMP-3 (total) ELISA kit (Quantikine is a registered trademark of R&D Systems, Inc. Minneapolis, Minn., USA) as per the manufacturer's instructions. Production of pro-inflammatory cytokines IL-1β, IL-6, IL-10, TNF, IL-12p70 and chemokines IL-8, RANTES, MIG, MCP-1, IP-10 in the tissue culture supernatants was determined using preconfigured multiplex BD Cytometric Bead Array (CBA) human inflammation and chemokine kits respectively, employing the FACS Calibur flow cytometer (BD Biosciences, Mississauga, ON, Canada) as per the manufacture's instructions. The concentration of the cytokines or chemokines in the tissue culture supernatants was evaluated by establishing a standard curve with serial dilutions of the recombinant human cytokines or chemokines as required.
To evaluate whether IDR-1002 alone could induce inflammatory responses, human FLS cells were stimulated with IDR-1002 (100 μg/ml) for 24 hr. BD Cytometric Bead Array (CBA) preconfigured human inflammation (IL-8, IL-1β, IL-6, IL-10, TNF, IL-12p70) kit was used to evaluate protein secretion of the various analytes in the tissue culture supernatants employing FACS Calibur flow cytometer.
IL-1β-induced protein profiles (proteome) in the presence and absence of IDR-1002 were evaluated using quantitative proteomics iTRAQ® tools employing different isobaric tags. Human FLS cells were treated with IDR-1002 (100 μg/ml) for 45 min prior to IL-1β (10 ng/ml) stimulation for 24 hr. Tissue culture supernatants were monitored for protein production of MMP-3 and chemokines IL-8 and MCP-1 production, in order to evaluate the validity of the assay before processing the cell lysates for quantitative proteomic evaluation. MMP-3 production was monitored in the tissue culture supernatants by ELISA, and chemokines IL-8 and MCP-1 production were evaluated by BD preconfigured human chemokine Cytometric Bead Array.

Some results are limits rather than exact numbers.

In the case of VQRWLIVWRIRK (IDR-1002 peptide), the “IL-10 and IL-12p70 in supernatants by flow cytometry” value (IDR-1002 100 μg/ml alone, 24 hr) is “could not be detected”. Besides, where the note is “IDR-1002 100 μg/ml for 45 min prior to IL-1β 10 ng/ml, 24 hr, FIG. 2B”, the “suppression of IL-1β-induced chemokine MCP-1 production” value is given as more than 60%. The “suppression of IL-1β-induced chemokine IL-8 production” value (IDR-1002 100 μg/ml for 45 min prior to IL-1β 10 ng/ml, 24 hr, FIG. 2C) was determined as 20%. Also, the “release of pro-inflammatory cytokines TNF-α, IL-1β or IL6 by peptide alone” value (IDR-1002 100 μg/ml, 24 hr, vs un-stimulated control cells, data not shown) is reported as “did not induce”. In addition, where the note is “IDR-1002 alone, human FLS”, the “chemokine production induced by peptide by itself in FLS” value is “did not induce chemokine production by itself”.
